Test results: publication PMC9399641, “Inhibition mechanism of alpha-amylase, a diabetes target, by a steroidal pregnane and pregnane glycosides derived from Gongronema latifolium Benth” (Frontiers in Molecular Biosciences, 2022)
pIC50: −log10 of the molar value. Read-outs that look alike come from different tables or passages of the source. Marks after values point to notes of the source that are not given here.

Legend:
[1] = biological target: T1, alpha-amylase from porcine pancreas (Sus scrofa, UniProt P00690); assay: alpha-amylase inhibition assay (DNSA method); type: biochemical; conditions: for LogIC50: isolated compounds and acarbose, log of IC50 in uM
T1 sequence (P00690 16-511): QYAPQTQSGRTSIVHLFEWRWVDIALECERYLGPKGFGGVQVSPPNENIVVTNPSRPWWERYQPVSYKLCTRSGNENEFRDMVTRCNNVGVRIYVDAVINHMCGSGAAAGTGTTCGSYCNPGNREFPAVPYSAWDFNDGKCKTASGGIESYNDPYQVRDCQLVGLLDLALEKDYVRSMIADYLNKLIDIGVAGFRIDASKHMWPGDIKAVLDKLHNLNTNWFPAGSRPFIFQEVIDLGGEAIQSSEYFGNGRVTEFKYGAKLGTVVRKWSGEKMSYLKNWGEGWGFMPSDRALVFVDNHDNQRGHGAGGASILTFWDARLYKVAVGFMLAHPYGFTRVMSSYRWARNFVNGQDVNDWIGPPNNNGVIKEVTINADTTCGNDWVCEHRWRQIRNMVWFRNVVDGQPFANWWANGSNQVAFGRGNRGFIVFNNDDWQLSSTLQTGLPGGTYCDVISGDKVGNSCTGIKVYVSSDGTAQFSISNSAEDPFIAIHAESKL
Protocol: Varying concentrations of the pregnane-rich fractions (40–200 μg/ml) and those of the isolated compounds (10–50 μg/ml) were prepared in DMSO. Briefly, 100 μL of the test substance was reacted with 200 μl of alpha-amylase (alpha-amylase from porcine pancreas, EC 3.2.1.1, type VI, Sigma) and 100 μl of […] phosphate buffer (pH 6.9) of 0.02 M sodium phosphate (pH 6.9). Subsequent to incubation for 20 min, 100 μL of 1% starch substrate was added. Blank controls where the enzyme was replaced with the buffer were also prepared alongside. Following incubation of the reaction mixture for 5 min, 500 μl of dinitrosalicylic acid reagent was mixed with the control and the test. These were kept in a water bath at a boiling temperature for 5 min.
The half-maximal inhibitory concentration (IC50) values were determined by fitting inhibition parameters with standard log inhibitor vs. normalized response models using nonlinear regression as described by [Buchwald (2020)].

[2] = test system: albino rats; assay: oral starch tolerance test; type: in vivo; conditions: for AUC / PBG / % reduction of AUC / % reduction of PBG: 3.0 g/kg starch; for AUC: blood glucose 0-120 min; for AUC / PBG: mean ± SEM n = 4; for % reduction of AUC / % reduction of PBG: vs control; for blood glucose level: oral, starch-challenged rats
Protocol: The animal study was reviewed and approved by the University Ethical Review Committee of the University of Ilorin (Protocol Identification Code: UERC/LSC/183). An oral starch tolerance test was carried out as described in a previous study ([Poovitha and […], 2016]). […] After 10 min, the blood glucose level was estimated (0 min), and the rats were orally administered with 3.0 g/kg starch. Then, the blood glucose level was estimated at 30, 60, and 120 min after the administration using a glucometer. Peak blood glucose (PBG) was determined by observing the blood glucose level during the previously mentioned time intervals, and the area under the curve (AUC) was calculated.

CC(O)[C@H]1CC[C@@]2(O)[C@]1(C)[C@H](O)[C@@H](O)[C@@H]1[C@@]3(C)CC[C@H](O)CC3=CC[C@]12O (some centres unmarked) [P1, marsectohexol]
LogIC50 [1]: 1.000
pIC50 ([1]; read-out: IC50): 5.00
AUC ([2]; 10 mg/kg oral): 883.5 ± 19.50 mmol·min/L
PBG ([2]; 10 mg/kg oral): 2.90 ± 0.10^ab mmol/L
% reduction of AUC ([2]; 10 mg/kg oral): 6.36%
% reduction of PBG ([2]; 10 mg/kg oral): 19.44%
AUC ([2]; 20 mg/kg oral): 699.0 ± 48.0 mmol·min/L
PBG ([2]; 20 mg/kg oral): 2.15 ± 0.45^b mmol/L
% reduction of AUC ([2]; 20 mg/kg oral): 25.91%
peak blood glucose (PBG) and area under the curve (AUC) ([2]; 20 mg/kg oral, after starch loading, in words): significantly reduced
blood glucose level ([2]; in words): significantly reduced
blood glucose level ([2]; in words, listed as marsectohexol): significant decrease

COC1CC(OC2CCC3(C)C(=CCC4(O)C3C(O)C(O)C3(C)C(C(C)=O)CCC43O)C2)OC(C)C1OC1OC(C)C(O)C(OC)C1O [P3, 3-O-[6-deoxy-3-O-methyl-β-D-allopyranosyl-(1→4)-β-D-oleandropyranosyl]-17β-marsdenin]
pIC50 [1]: 4.85
LogIC50 [1]: 1.147

C[C@H]1O[C@H](O[C@H]2[C@H](O)[C@@H](O)[C@@H](O[C@H]3[C@H](O)[C@@H](O)C(O)O[C@@H]3CO)O[C@@H]2CO)[C@H](O)[C@@H](O)[C@@H]1N[C@H]1C=C(CO)[C@@H](O)[C@H](O)[C@H]1O (some centres unmarked) [Acarbose, acarbose, reference compound]
percentage inhibitory activity on porcine alpha-amylase ([1]; in words, fractions 40–200 μg/ml, compounds 10–50 μg/ml): greatest inhibition effects
PBG ([2]; 10 mg/kg oral): 2.85 ± 0.05^ab mmol/L
% reduction of AUC ([2]; 10 mg/kg oral): 7.00%
% reduction of PBG ([2]; 10 mg/kg oral): 20.83%
blood glucose level ([2]; in words): significant decrease

COC1C(O)C(C)OC(OC2C(O)CC(OC3CCC4(C)C(=CCC5(O)C4C(O)C(O)C4(C)C(C(C)=O)CCC54O)C3)OC2C)C1O [P4, 3-O-[6-deoxy-3-O-methyl-β-D-allopyranosyl-(1→4)-β-D-canaropyranosyl]-17β-marsdenin]
LogIC50 [1]: 1.137
pIC50 ([1]; read-out: IC50): 4.86

CC=C(C)C(=O)OC1C2C3(C)CCC(OC4CC(OC)C(OC5OC(C)C(O)C(OC)C5O)C(C)O4)CC3=CCC2(O)C2(O)CCC(C(C)=O)C2(C)C1OC(=O)C(C)=CC [P2, 3-O-[6-deoxy-3-O-methyl-β-D-allopyranosyl-(1→14)-β-D-oleandropyranosyl]-11,12-di-O-tigloyl-17β-marsdenin]
pIC50 [1]: 4.92
LogIC50 [1]: 1.083
